Data reported in patent US10961231B2, “NTCP inhibitors” (National Institute of Biological Sciences, Beijing, priority 2018, dated 2021).

Each compound was assayed against T1, NTCP (Homo sapiens, UniProt Q14973) (assay: [3H]-TCA uptake assay (NTCP inhibition)). Settings: IC50, given as a range, marked * (asterisk not explained).
T1 sequence (Q14973 1-349): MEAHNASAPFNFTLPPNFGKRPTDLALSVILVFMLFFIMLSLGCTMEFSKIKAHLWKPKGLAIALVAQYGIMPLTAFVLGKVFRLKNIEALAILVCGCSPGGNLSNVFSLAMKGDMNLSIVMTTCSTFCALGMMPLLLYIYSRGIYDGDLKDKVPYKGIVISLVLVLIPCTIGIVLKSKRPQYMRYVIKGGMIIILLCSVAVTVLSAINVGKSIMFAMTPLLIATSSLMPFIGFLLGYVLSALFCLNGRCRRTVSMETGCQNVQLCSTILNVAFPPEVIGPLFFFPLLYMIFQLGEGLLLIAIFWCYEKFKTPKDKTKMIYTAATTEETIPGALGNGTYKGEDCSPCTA
Assay type: cell-based
Method in brief: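 PTH and HepG2-NTCP cells kept 24 h in PMM to induce NTCP, then exposed 2 h to test compounds or DMSO. Uptake of 1 μM [3H]-taurocholate in Na+ Ringer's buffer (145 mM Na) ran 15 min at 37° C. Cells washed, lysed in 1% Triton X-100, and radioactivity counted by liquid scintillation.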
`CCC1NC(=O)C(C2OC(Sc3cccc(OCc4cccs4)c3)CC2C)N(C)C(=O)C(C(C)C)N(C)C(=O)C(CC(C)C)N(C)C(=O)C(CC(C)C)N(C)C(=O)C(C)NC(=O)C(C)NC(=O)C(CC(C)C)N(C)C(=O)C(C(C)C)NC(=O)C(CC(C)C)N(C)C(=O)CN(C)C1=O` (stereo not shown) [Compound 69] was tested, and the IC50 was 1 to 100 µM.
`CCC1NC(=O)C(C2OC(Oc3cccc(OCC4CCN(C)CC4)c3)CC2C)N(C)C(=O)C(C(C)C)N(C)C(=O)C(CC(C)C)N(C)C(=O)C(CC(C)C)N(C)C(=O)C(C)NC(=O)C(C)NC(=O)C(CC(C)C)N(C)C(=O)C(C(C)C)NC(=O)C(CC(C)C)N(C)C(=O)CN(C)C1=O` (stereo not shown) [Compound 72-o] showed an IC50 of 1 to 100 µM.
With `CCC1NC(=O)C(C2OC(Sc3cccc(OCC4CCN(C)CC4)c3)CC2C)N(C)C(=O)C(C(C)C)N(C)C(=O)C(CC(C)C)N(C)C(=O)C(CC(C)C)N(C)C(=O)C(C)NC(=O)C(C)NC(=O)C(CC(C)C)N(C)C(=O)C(C(C)C)NC(=O)C(CC(C)C)N(C)C(=O)CN(C)C1=O` (stereo not shown) [Compound 72] the IC50 was 1 to 100 µM.
For `CCC1NC(=O)C(C2OC(SCc3ccccc3)CC2C)N(C)C(=O)C(C(C)C)N(C)C(=O)C(CC(C)C)N(C)C(=O)C(CC(C)C)N(C)C(=O)C(C)NC(=O)C(C)NC(=O)C(CC(C)C)N(C)C(=O)C(C(C)C)NC(=O)C(CC(C)C)N(C)C(=O)CN(C)C1=O` (stereo not shown) [Compound 74A-s], the IC50 was 1 to 100 µM.
`CCC1NC(=O)C(C2OC(SCc3cccc(S(=O)(=O)OCC(C)C)c3)CC2C)N(C)C(=O)C(C(C)C)N(C)C(=O)C(CC(C)C)N(C)C(=O)C(CC(C)C)N(C)C(=O)C(C)NC(=O)C(C)NC(=O)C(CC(C)C)N(C)C(=O)C(C(C)C)NC(=O)C(CC(C)C)N(C)C(=O)CN(C)C1=O` (stereo not shown) [Compound 75A-s] gave an IC50 of 1 to 100 µM.
Work on `CCC1NC(=O)C(C2OC(SCc3cccc(S(=O)(=O)NCC(C)C)c3)CC2C)N(C)C(=O)C(C(C)C)N(C)C(=O)C(CC(C)C)N(C)C(=O)C(CC(C)C)N(C)C(=O)C(C)NC(=O)C(C)NC(=O)C(CC(C)C)N(C)C(=O)C(C(C)C)NC(=O)C(CC(C)C)N(C)C(=O)CN(C)C1=O` (stereo not shown) [Compound 76A-s] yielded an IC50 of 1 to 100 µM.
Work on `CCC1NC(=O)C(C2OC(SCc3ccc(-n4cccn4)cc3)CC2C)N(C)C(=O)C(C(C)C)N(C)C(=O)C(CC(C)C)N(C)C(=O)C(CC(C)C)N(C)C(=O)C(C)NC(=O)C(C)NC(=O)C(CC(C)C)N(C)C(=O)C(C(C)C)NC(=O)C(CC(C)C)N(C)C(=O)CN(C)C1=O` (stereo not shown) [Compound 77A-s] yielded an IC50 of 1 to 100 µM.
In the case of `CCC1NC(=O)C(C2OC(SC(C)c3ccccc3)CC2C)N(C)C(=O)C(C(C)C)N(C)C(=O)C(CC(C)C)N(C)C(=O)C(CC(C)C)N(C)C(=O)C(C)NC(=O)C(C)NC(=O)C(CC(C)C)N(C)C(=O)C(C(C)C)NC(=O)C(CC(C)C)N(C)C(=O)CN(C)C1=O` (stereo not shown) [Compound 78A-s], the IC50 is reported as 1 to 100 µM.
`CCC1NC(=O)C(C2OC(SC(c3ccccc3)c3ccccc3)CC2C)N(C)C(=O)C(C(C)C)N(C)C(=O)C(CC(C)C)N(C)C(=O)C(CC(C)C)N(C)C(=O)C(C)NC(=O)C(C)NC(=O)C(CC(C)C)N(C)C(=O)C(C(C)C)NC(=O)C(CC(C)C)N(C)C(=O)CN(C)C1=O` (stereo not shown) [Compound 80A-s] gave an IC50 of 1 to 100 µM.
Compound `CCC1NC(=O)C(C2OC(SCc3cccc(OC)c3)CC2C)N(C)C(=O)C(C(C)C)N(C)C(=O)C(CC(C)C)N(C)C(=O)C(CC(C)C)N(C)C(=O)C(C)NC(=O)C(C)NC(=O)C(CC(C)C)N(C)C(=O)C(C(C)C)NC(=O)C(CC(C)C)N(C)C(=O)CN(C)C1=O` (stereo not shown) [Compound 81A-s] has an IC50 of 1 to 100 µM.
`CCC1NC(=O)C(C2OC(SCc3ccccc3OC)CC2C)N(C)C(=O)C(C(C)C)N(C)C(=O)C(CC(C)C)N(C)C(=O)C(CC(C)C)N(C)C(=O)C(C)NC(=O)C(C)NC(=O)C(CC(C)C)N(C)C(=O)C(C(C)C)NC(=O)C(CC(C)C)N(C)C(=O)CN(C)C1=O` (stereo not shown) [Compound 82A-s] was tested, and the IC50 was 1 to 100 µM.
With `CCC1NC(=O)C(C2OC(SCc3ccc(OC)cc3)CC2C)N(C)C(=O)C(C(C)C)N(C)C(=O)C(CC(C)C)N(C)C(=O)C(CC(C)C)N(C)C(=O)C(C)NC(=O)C(C)NC(=O)C(CC(C)C)N(C)C(=O)C(C(C)C)NC(=O)C(CC(C)C)N(C)C(=O)CN(C)C1=O` (stereo not shown) [Compound 83A-s] the IC50 was 1 to 100 µM.

Same assay, conditions: IC50, given as a range; assay not given
Work on `CCC1NC(=O)C(C2OC(OCc3cccc(S(=O)(=O)NCC(C)C)c3)CC2C)N(C)C(=O)C(C(C)C)N(C)C(=O)C(CC(C)C)N(C)C(=O)C(CC(C)C)N(C)C(=O)C(C)NC(=O)C(C)NC(=O)C(CC(C)C)N(C)C(=O)C(C(C)C)NC(=O)C(CC(C)C)N(C)C(=O)CN(C)C1=O` [Compound 76A, [2-((2R,3R)-5-(3-(N-isobutylsulfamoyl)benzyloxy)-3-methyltetrahydrofuran-2-yl)-2-(methylamino)acetic acid]^1-cyclosporin A] yielded an IC50 of 1 to 10 µM.
In the case of `CCC1NC(=O)C(C2OC(OCc3ccc(-n4cccn4)cc3)CC2C)N(C)C(=O)C(C(C)C)N(C)C(=O)C(CC(C)C)N(C)C(=O)C(CC(C)C)N(C)C(=O)C(C)NC(=O)C(C)NC(=O)C(CC(C)C)N(C)C(=O)C(C(C)C)NC(=O)C(CC(C)C)N(C)C(=O)CN(C)C1=O` [Compound 77A, [2-((2R,3R)-5-(4-(1H-pyrazol-1-yl)benzyloxy)-3-methyltetrahydrofuran-2-yl)-2-(methylamino)acetic acid]^1-cyclosporin A], the IC50 is reported as 1 to 10 µM.

Same assay, conditions: given as a range, marked * (asterisk not explained)
With `CCC1NC(=O)C(C2OC(Oc3cc(OC)cc(OCC4CCN(C)CC4)c3)CC2C)N(C)C(=O)C(C(C)C)N(C)C(=O)C(CC(C)C)N(C)C(=O)C(CC(C)C)N(C)C(=O)C(C)NC(=O)C(C)NC(=O)C(CC(C)C)N(C)C(=O)C(C(C)C)NC(=O)C(CC(C)C)N(C)C(=O)CN(C)C1=O` (stereo not shown) [Compound 70-o] the IC50 was 1 to 100 µM.
In the case of `CCC1NC(=O)C(C2OC(Sc3cc(OC)cc(OCC4CCN(C)CC4)c3)CC2C)N(C)C(=O)C(C(C)C)N(C)C(=O)C(CC(C)C)N(C)C(=O)C(CC(C)C)N(C)C(=O)C(C)NC(=O)C(C)NC(=O)C(CC(C)C)N(C)C(=O)C(C(C)C)NC(=O)C(CC(C)C)N(C)C(=O)CN(C)C1=O` (stereo not shown) [Compound 70], the IC50 is reported as 1 to 100 µM.
Compound `CCC1NC(=O)C(C2OC(Oc3cc(Cl)cc(OCC4CCN(C)CC4)c3)CC2C)N(C)C(=O)C(C(C)C)N(C)C(=O)C(CC(C)C)N(C)C(=O)C(CC(C)C)N(C)C(=O)C(C)NC(=O)C(C)NC(=O)C(CC(C)C)N(C)C(=O)C(C(C)C)NC(=O)C(CC(C)C)N(C)C(=O)CN(C)C1=O` (stereo not shown) [Compound 71-o] has an IC50 of 1 to 100 µM.
For `CCC1NC(=O)C(C2OC(Sc3cc(Cl)cc(OCC4CCN(C)CC4)c3)CC2C)N(C)C(=O)C(C(C)C)N(C)C(=O)C(CC(C)C)N(C)C(=O)C(CC(C)C)N(C)C(=O)C(C)NC(=O)C(C)NC(=O)C(CC(C)C)N(C)C(=O)C(C(C)C)NC(=O)C(CC(C)C)N(C)C(=O)CN(C)C1=O` (stereo not shown) [Compound 71], the IC50 was 1 to 100 µM.
`CCC1NC(=O)C(C2OC(Oc3cc(OCCOC)cc(OCCOC)c3)CC2C)N(C)C(=O)C(C(C)C)N(C)C(=O)C(CC(C)C)N(C)C(=O)C(CC(C)C)N(C)C(=O)C(C)NC(=O)C(C)NC(=O)C(CC(C)C)N(C)C(=O)C(C(C)C)NC(=O)C(CC(C)C)N(C)C(=O)CN(C)C1=O` (stereo not shown) [Compound 73-o] was tested, and the IC50 was 1 to 100 µM.
With `CCC1NC(=O)C(C2OC(Sc3cc(OCCOC)cc(OCCOC)c3)CC2C)N(C)C(=O)C(C(C)C)N(C)C(=O)C(CC(C)C)N(C)C(=O)C(CC(C)C)N(C)C(=O)C(C)NC(=O)C(C)NC(=O)C(CC(C)C)N(C)C(=O)C(C(C)C)NC(=O)C(CC(C)C)N(C)C(=O)CN(C)C1=O` (stereo not shown) [Compound 73] the IC50 was 1 to 100 µM.

Same assay, conditions: given as a range; assay not given
Compound `CCC1NC(=O)C(C2OC(OCc3ccccc3)CC2C)N(C)C(=O)C(C(C)C)N(C)C(=O)C(CC(C)C)N(C)C(=O)C(CC(C)C)N(C)C(=O)C(C)NC(=O)C(C)NC(=O)C(CC(C)C)N(C)C(=O)C(C(C)C)NC(=O)C(CC(C)C)N(C)C(=O)CN(C)C1=O` [Compound 74A, [2-((2R,3R)-5-(benzyloxy)-3-methyltetrahydrofuran-2-yl)-2-(methylamino)acetic acid]^1-cyclosporin A] has an IC50 of 0.001 to 1 µM.
In the case of `CCC1NC(=O)C(C2OC(OCc3cccc(S(=O)(=O)OCC(C)C)c3)CC2C)N(C)C(=O)C(C(C)C)N(C)C(=O)C(CC(C)C)N(C)C(=O)C(CC(C)C)N(C)C(=O)C(C)NC(=O)C(C)NC(=O)C(CC(C)C)N(C)C(=O)C(C(C)C)NC(=O)C(CC(C)C)N(C)C(=O)CN(C)C1=O` [Compound 75A, [2-((2R,3R)-5-(3-(isobutoxysulfonyl)benzyloxy)-3-methyltetrahydrofuran-2-yl)-2-(methylamino)acetic acid]^1-cyclosporin A], the IC50 is reported as 0.001 to 1 µM.
Compound `CCC1NC(=O)C(C2OC(OC(c3ccccc3)c3ccccc3)CC2C)N(C)C(=O)C(C(C)C)N(C)C(=O)C(CC(C)C)N(C)C(=O)C(CC(C)C)N(C)C(=O)C(C)NC(=O)C(C)NC(=O)C(CC(C)C)N(C)C(=O)C(C(C)C)NC(=O)C(CC(C)C)N(C)C(=O)CN(C)C1=O` [Compound 80A, [2-((2R,3R)-3-methyl-5-(benzhydryloxy)tetrahydrofuran-2-yl)-2-(methylamino)acetic acid]^1-cyclosporin A] has an IC50 of 0.001 to 1 µM.
In the case of `CCC1NC(=O)C(C2OC(OCc3cccc(OC)c3)CC2C)N(C)C(=O)C(C(C)C)N(C)C(=O)C(CC(C)C)N(C)C(=O)C(CC(C)C)N(C)C(=O)C(C)NC(=O)C(C)NC(=O)C(CC(C)C)N(C)C(=O)C(C(C)C)NC(=O)C(CC(C)C)N(C)C(=O)CN(C)C1=O` [Compound 81A, [2-((2R,3R)-5-(3-methoxybenzyloxy)-3-methyltetrahydrofuran-2-yl)-2-(methylamino)acetic acid]^1-cyclosporin A], the IC50 is reported as 0.001 to 1 µM.
Compound `CCC1NC(=O)C(C2OC(OCc3ccc(OC)cc3)CC2C)N(C)C(=O)C(C(C)C)N(C)C(=O)C(CC(C)C)N(C)C(=O)C(CC(C)C)N(C)C(=O)C(C)NC(=O)C(C)NC(=O)C(CC(C)C)N(C)C(=O)C(C(C)C)NC(=O)C(CC(C)C)N(C)C(=O)CN(C)C1=O` [Compound 83A, [2-((2R,3R)-5-(4-methoxybenzyloxy)-3-methyltetrahydrofuran-2-yl)-2-(methylamino)acetic acid]^1-cyclosporin A] has an IC50 of 0.001 to 1 µM.
